Assay results reported in ChEMBL document CHEMBL3885881, “DrugMatrix”.

Species on record: Rattus norvegicus
Experiment: DrugMatrix - Regimen: Daily Repeat
Assay type: toxicity, organism-based, Sprague-Dawley
Set-up: regimen Daily Repeat, gender Male, age 6-8 weeks
Settings: in vivo, po, […], route oral GAVAGE, dose 1.6 mg/Kg, dose level High, vehicle 100 % WATER; for BASOPHIL / EOSINOPHIL / ERYTHROCYTE COUNT / HEMATOCRIT / HEMOGLOBIN / LEUKOCYTE COUNT / LYMPHOCYTE / MEAN CORPUSCULAR HEMOGLOBIN / MEAN CORPUSCULAR HEMOGLOBIN CONCENTRATION / MEAN CORPUSCULAR VOLUME / MONOCYTE / NEUTROPHIL / PLATELET COUNT: tissue Blood; for ALANINE AMINOTRANSFERASE / ALBUMIN / ALKALINE PHOSPHATASE / ASPARTATE AMINOTRANSFERASE / BLOOD UREA NITROGEN / CARBON DIOXIDE / CHLORIDE / CHOLESTEROL / CREATINE PHOSPHOKINASE / CREATININE / GLUCOSE / LACTATE DEHYDROGENASE / LIPASE / PHOSPHORUS / POTASSIUM / SODIUM / TOTAL BILIRUBIN / TOTAL PROTEIN / URIC ACID: tissue Plasma

`O=[Se](=O)([O-])[O-].[Na+].[Na+]` [SODIUM SELENATE] was tested, and the BASOPHIL (96 h, time 4 day) was 0.33%, the EOSINOPHIL (96 h, time 4 day) was 0.73% and the “ERYTHROCYTE COUNT” value (96 h, time 4 day) was 6.6 x10E6/uL. The HEMATOCRIT (96 h, time 4 day) was 40.23%, the HEMOGLOBIN (96 h, time 4 day) was 12.93 G/DL and the “LEUKOCYTE COUNT” value (96 h, time 4 day) was 11.54 x10E3/uL. The LYMPHOCYTE (96 h, time 4 day) was 85%, the “MEAN CORPUSCULAR HEMOGLOBIN” value (96 h, time 4 day) was 19.6 pg and the “MEAN CORPUSCULAR HEMOGLOBIN CONCENTRATION” value (96 h, time 4 day) was 32.13 G/DL. For the same compound, the “MEAN CORPUSCULAR VOLUME” value (96 h, time 4 day) was 60.97 fL, the MONOCYTE (96 h, time 4 day) was 1.8% and the NEUTROPHIL (96 h, time 4 day) was 11.6%. The “PLATELET COUNT” value (96 h, time 4 day) was 1460.67 x10E3/uL, the “ALANINE AMINOTRANSFERASE” value (96 h, time 4 day) was 31.33 u/L and the ALBUMIN (96 h, time 4 day) was 3.73 G/DL. For the same compound, the “ALKALINE PHOSPHATASE” value (96 h, time 4 day) was 296.67 u/L, the “ASPARTATE AMINOTRANSFERASE” value (96 h, time 4 day) was 69.67 u/L and the “BLOOD UREA NITROGEN” value (96 h, time 4 day) was 16 mg/dL. The “CARBON DIOXIDE” value (96 h, time 4 day) was 24 mmol/L, the CHLORIDE (96 h, time 4 day) was 107.67 MEQ/L and the CHOLESTEROL (96 h, time 4 day) was 75.33 mg/dL. The “CREATINE PHOSPHOKINASE” value (96 h, time 4 day) was 411.33 u/L, the CREATININE (96 h, time 4 day) was 0.4 mg/dL and the GLUCOSE (96 h, time 4 day) was 170.67 mg/dL. For the same compound, the “LACTATE DEHYDROGENASE” value (96 h, time 4 day) was 107.33 u/L, the LIPASE (96 h, time 4 day) was 18 u/L and the PHOSPHORUS (96 h, time 4 day) was 11.1 mg/dL. For the same compound, the POTASSIUM (96 h, time 4 day) was 6.2 MEQ/L, the SODIUM (96 h, time 4 day) was 148.33 MEQ/L and the “TOTAL BILIRUBIN” value (96 h, time 4 day) was 0.4 mg/dL. The “TOTAL PROTEIN” value (96 h, time 4 day) was 6.2 G/DL, the “URIC ACID” value (96 h, time 4 day) was 1.3 mg/dL and the BASOPHIL (time 6 day) was 0.27%. For the same compound, the EOSINOPHIL (time 6 day) was 0.3%, the “ERYTHROCYTE COUNT” value (time 6 day) was 7.08 x10E6/uL and the HEMATOCRIT (time 6 day) was 44.53%. For the same compound, the HEMOGLOBIN (time 6 day) was 14.1 G/DL, the “LEUKOCYTE COUNT” value (time 6 day) was 12.82 x10E3/uL and the LYMPHOCYTE (time 6 day) was 83.7%. For the same compound, the “MEAN CORPUSCULAR HEMOGLOBIN” value (time 6 day) was 19.97 pg, the “MEAN CORPUSCULAR HEMOGLOBIN CONCENTRATION” value (time 6 day) was 31.7 G/DL and the “MEAN CORPUSCULAR VOLUME” value (time 6 day) was 62.9 fL. For the same compound, the MONOCYTE (time 6 day) was 2.23%, the NEUTROPHIL (time 6 day) was 13.07% and the “PLATELET COUNT” value (time 6 day) was 1297.33 x10E3/uL. The BASOPHIL (time 14 day) was 0.42%, the EOSINOPHIL (time 14 day) was 0.92% and the “ERYTHROCYTE COUNT” value (time 14 day) was 8.04 x10E6/uL. For the same compound, the HEMATOCRIT (time 14 day) was 52.44%, the HEMOGLOBIN (time 14 day) was 15.34 G/DL and the “LEUKOCYTE COUNT” value (time 14 day) was 13.75 x10E3/uL. For the same compound, the LYMPHOCYTE (time 14 day) was 84.4%, the “MEAN CORPUSCULAR HEMOGLOBIN” value (time 14 day) was 19.12 pg and the “MEAN CORPUSCULAR HEMOGLOBIN CONCENTRATION” value (time 14 day) was 29.26 G/DL. For the same compound, the “MEAN CORPUSCULAR VOLUME” value (time 14 day) was 65.28 fL, the MONOCYTE (time 14 day) was 2.18% and the NEUTROPHIL (time 14 day) was 11.62%. For the same compound, the “PLATELET COUNT” value (time 14 day) was 1231.6 x10E3/uL, the “ALANINE AMINOTRANSFERASE” value (time 6 day) was 33 u/L and the ALBUMIN (time 6 day) was 4.03 G/DL. The “ALKALINE PHOSPHATASE” value (time 6 day) was 331 u/L, the “ASPARTATE AMINOTRANSFERASE” value (time 6 day) was 80 u/L and the “BLOOD UREA NITROGEN” value (time 6 day) was 16.33 mg/dL. The “CARBON DIOXIDE” value (time 6 day) was 23.67 mmol/L, the CHLORIDE (time 6 day) was 108.67 MEQ/L and the CHOLESTEROL (time 6 day) was 74.67 mg/dL. For the same compound, the “CREATINE PHOSPHOKINASE” value (time 6 day) was 413 u/L, the CREATININE (time 6 day) was 0.37 mg/dL and the GLUCOSE (time 6 day) was 182.67 mg/dL. For the same compound, the “LACTATE DEHYDROGENASE” value (time 6 day) was 123 u/L, the LIPASE (time 6 day) was 8 u/L and the PHOSPHORUS (time 6 day) was 12.5 mg/dL. For the same compound, the POTASSIUM (time 6 day) was 6.73 MEQ/L, the SODIUM (time 6 day) was 151.67 MEQ/L and the “TOTAL BILIRUBIN” value (time 6 day) was 0.37 mg/dL. The “TOTAL PROTEIN” value (time 6 day) was 6.83 G/DL, the “URIC ACID” value (time 6 day) was 1.77 mg/dL and the “ALANINE AMINOTRANSFERASE” value (time 14 day) was 40.4 u/L. The ALBUMIN (time 14 day) was 4.2 G/DL, the “ALKALINE PHOSPHATASE” value (time 14 day) was 262.8 u/L and the “ASPARTATE AMINOTRANSFERASE” value (time 14 day) was 72.4 u/L. For the same compound, the “BLOOD UREA NITROGEN” value (time 14 day) was 16.4 mg/dL, the “CARBON DIOXIDE” value (time 14 day) was 27.4 mmol/L and the CHLORIDE (time 14 day) was 104.4 MEQ/L. For the same compound, the CHOLESTEROL (time 14 day) was 63.8 mg/dL, the “CREATINE PHOSPHOKINASE” value (time 14 day) was 181 u/L and the CREATININE (time 14 day) was 0.42 mg/dL. The GLUCOSE (time 14 day) was 154.8 mg/dL, the “LACTATE DEHYDROGENASE” value (time 14 day) was 91 u/L and the LIPASE (time 14 day) was 11.6 u/L. For the same compound, the PHOSPHORUS (time 14 day) was 11.26 mg/dL, the POTASSIUM (time 14 day) was 6.38 MEQ/L and the SODIUM (time 14 day) was 148.4 MEQ/L. For the same compound, the “TOTAL BILIRUBIN” value (time 14 day) was 0.4 mg/dL, the “TOTAL PROTEIN” value (time 14 day) was 6.72 G/DL and the “URIC ACID” value (time 14 day) was 1.52 mg/dL.
